Data set [1] has as its system CXCR4-expressing Chem_1 cells. Description: Determination of internalization, dual tracer with 125I-Fc-131. In kind it is cell-based. The settings on record: for Cell-bound [%] / Internalized [%]: of total cellular activity; for Internalization [% Fc-131] 2 h: 177Lu-labeled. As to the method: CXCR4-expressing Chem_1 cells were grown in DMEM-F12 medium supplemented with 10 vol % FBS, 1 vol % NEA, 1 vol % PenStrep and 1 vol % HEPES (1.00 M). Cells were maintained in a 5% CO2 atmosphere at 37° C.
For in vitro experiments, cells were harvested by removal of the medium and incubation of the cells with trypsine/EDTA (0.05%/0.02%; w/v) for 30 in at 37° C.
Each well (n=3 for every time point) was either treated with 25 μL DMEM-F12 (+5 wt % BSA) or 25 μL of an AMD3100 stock (1 mM in H2O) for blockage of the receptors.
The experiment was stopped by placing the well-plate on ice and removing the supernatant. The cells were washed with 250 μL cold HBSS and the both fractions for each well combined, comprising the amount of unbound radioligand.
The supernatant was removed, the cells washed with cold HBSS and the respective fractions combined to obtain the amount of surface-bound radioligand.
The cells were then incubated with 300 μL NaOH (1.00 M in H2O) for at least 30 at r.t. before the supernatant was removed. The well was washed with another 300 μL NaOH and the fractions combined that contain the amount of internalized radioligand.
The three different fractions were subjected to activity measurement in the γ-counter, measuring the activity of the radionuclide used for the labeling of the peptide under investigation first. […] Data was corrected for non-specific internalization and referred to the specific internalization of the standard ligand

In data set [2] the target is CXCR4 (Homo sapiens, UniProt P61073). Description: Determination of IC50: competition with 125I-Fc-131 on CXCR4-positive Jurkat cells.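 Note: test compound at 10^−5 to 10^−11 M competed for 2 h at 8 °C with the radioligand on 400,000 cells per well, bound versus free activity measured by γ-counting.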 Details: CXCR4-positive Jurkat T lymphocyte cells were grown in Gibco's RPMI 1640 GlutaMAX medium; endogenous in cells; host or cells: Jurkat T lymphocyte cells (whole cells in suspension, 400.000 per tube). It is filed as binding.
Sequence of CXCR4 (P61073 whole entry): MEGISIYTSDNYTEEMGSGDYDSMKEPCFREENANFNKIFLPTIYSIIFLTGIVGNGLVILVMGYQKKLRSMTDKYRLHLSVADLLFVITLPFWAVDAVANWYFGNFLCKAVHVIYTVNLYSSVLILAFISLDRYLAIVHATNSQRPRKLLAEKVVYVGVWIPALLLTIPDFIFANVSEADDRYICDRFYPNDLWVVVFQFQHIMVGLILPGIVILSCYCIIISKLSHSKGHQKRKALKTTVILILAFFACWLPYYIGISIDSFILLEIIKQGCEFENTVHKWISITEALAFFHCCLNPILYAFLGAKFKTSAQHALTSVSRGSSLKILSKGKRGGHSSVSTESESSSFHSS
Method: For in vitro experiments, cells were counted in a hemocytometer using trypan blue as contrast agent. The cell suspension was centrifuged, and the pellet resuspended in HBSS (+1 wt % BSA) to a concentration of 2 mio cells/mL. […] 200 μL of cell suspension (400.000 cells per well) were added to obtain a final peptide concentration range of 10^−5-10^−11 M. The tubes were cooled for 2 h at 8° C. to prevent internalization. The experiment was stopped by removal of the supernatant. 200 μL HBSS were added onto the cells, the suspension centrifuged, and the supernatant pooled with the respective first fractions. This step was repeated once more before the tubes containing the supernatants and the ones containing the cell pellets were subjected to activity measurement in the γ-counter.
A short description of data set [3]: Octanol/PBS partition coefficient (logD7.4). In kind it is physicochemical. The settings on record: n-octanol/PBS pH 7.4, radiolabeled compound. On the procedure: The tubes were vortexed at maximum speed for 3 min to ensure equilibrium before centrifugation at 15.000×g for 5 min on a Biofuge 15 from Heraeus Holding GmbH (Osterode, Germany). An aliquot of 100 μL of each fraction was measured in the γ-counter and the log D7.4 calculated as follows: […]

Data set [4] in a line: Biodistribution in Jurkat tumor-bearing CB-17 SCID mice. It is filed as in vivo. The following applies: female, CB-17 SCID, mouse, in vivo, iv, total radioactivity. In outline: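 CB17-SCID mice bore subcutaneous Jurkat xenografts (2-3×10^7 cells in Matrigel, shoulder), used at 5-8 mm tumor diameter. About 0.5-20 MBq (0.02-0.20 nmol) of 125I-, 177Lu-, 99mTc-, 18F- or 68Ga-labeled ligand given by tail vein; organs weighed and γ-counted after set times.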

[5] abbreviates: unlabeled or cold (natGa/natLu) compound vs 125I-Fc-131, Jurkat cells, read-out: IC50.
Setting [6] is: unlabeled or cold (natGa/natLu) compound vs 125I-Fc-131, Jurkat cells.

Read-outs that look alike come from different tables or passages of the source. Starred links: 1 amine or outer side, 2 acyl side, 3 side chain; linkers in the order of their positions; H or OH if unused. Positions of bridges follow the written chain, without caps; N, C: chain ends. Non-standard residues stand in square brackets, D forms with d. Residues, ends and D or L forms follow the SMILES beside them. Groups on a side chain read outwards from the residue. Chains are numbered I, II in the order given. *: point of attachment. X7 = O=C(O)CN1CCN(CC(=O)O)CCN([C@H](CCC(=O)*)C(=O)O)CCN(CC(=O)O)CC1; Benzoyl(4-SiFtBu2) = CC(C)(C)[Si](F)(c1ccc(C(=O)*)cc1)C(C)(C)C; DOTA = O=C(O)CN1CCN(CC(=O)O)CCN(CC(=O)*)CCN(CC(=O)O)CC1; d(γGlu) = O=C(O)[C@@H](CCC(=O)[*:2])N[*:1]; dTyr(3-I) = N[C@H](Cc1ccc(O)c(I)c1)C(=O)O; 2Nal = N[C@@H](Cc1ccc2ccccc2c1)C(=O)O; dNMeOrn = CN[C@H](CCCN)C(=O)O; 4Amb = NCc1ccc(C(=O)O)cc1; 4Abz = Nc1ccc(C(=O)O)cc1; dDap = NC[C@@H](N)C(=O)O; CO = O=C([*:1])[*:2]; Ahx = NCCCCCC(=O)O

Data on five compounds can be found in patent US20250288704A1, “CXCR4-LIGANDS FOR DIAGNOSTIC AND THERAPEUTIC USE AND PRECURSORS THEREOF” (priority 2021, published 2025).

For orientation: IC50 means the concentration needed to halve the response being measured. In general, tissue uptake refers to the percentage of the injected dose found per gram of tissue.

As to `C[C@@H](NC(=O)[C@@H](CCCNC(=N)N)NC(=O)[C@@H](CN)NC(=O)CN1CCN(CC(=O)O)CCN(CC(=O)O)CCN(CC(=O)O)CC1)C(=O)NCc1ccc(C(=O)NCCC[C@@H]2C(=O)N[C@@H](CCCNC(=N)N)C(=O)N[C@@H](Cc3ccc4ccccc4c3)C(=O)NCC(=O)N[C@H](Cc3ccc(O)cc3)C(=O)N2C)cc1` [CXCR4-DOTA-1 [Lu]] (cyclo([dY][dNMeOrn]([4Amb-dA-dR-dDap-DOTA])R[2Nal]G)), the “Internalized in relation to 125I-Fc-131 [%]” value (shortened to “Internalized in relation … [%]”) in data set [1] (15 min) is on record as 78.3 ± 6.93%; in data set [1] (30 min), 95.0 ± 9.39%; in data set [1] (60 min), 109 ± 24.6%; in data set [1] (120 min), 133 ± 7.31%. Further, the “Cell-bound [%]” value in data set [1] (15 min) was found to be 4.27 ± 0.38%; in data set [1] (30 min), 4.43 ± 0.08%; in data set [1] (60 min), 6.02 ± 0.67%; in data set [1] (120 min), 4.97 ± 0.31%. Moreover, the “Internalized [%]” value in data set [1] (15 min) is on record as 2.61 ± 0.20%; in data set [1] (30 min), 3.28 ± 0.27%; in data set [1] (60 min) it was 5.04 ± 0.92%; in data set [1] (120 min), 7.08 ± 0.22%. The “Internalization [% Fc-131] 2 h” value in data set [1] (2 h) stood at 133 % Fc-131. Besides, the IC50 in data set [2] (setting [5]) turned out to be 5.05 ± 1.75 nM. Also, the logD7.4 in data set [3] is −3.41 ± 0.05 (6).

For `C[C@@H](NC(=O)[C@@H](CCCNC(=N)N)NC(=O)[C@@H](CN)NC(=O)CN1CCN(CC(=O)O)CCN(CC(=O)O)CCN(CC(=O)O)CC1)C(=O)NCc1ccc(C(=O)NCCC[C@@H]2C(=O)N[C@@H](CCCNC(=N)N)C(=O)N[C@@H](Cc3ccc4ccccc4c3)C(=O)NCC(=O)N[C@H](Cc3ccc(O)c(I)c3)C(=O)N2C)cc1` [CXCR4-DOTA-2 [Lu]] (cyclo([dTyr(3-I)][dNMeOrn]([4Amb-dA-dR-dDap-DOTA])R[2Nal]G)), the “Internalized in relation … [%]” value came out at 247 ± 26.2% in data set [1] (15 min), 347 ± 36.1% in data set [1] (30 min), 368 ± 36.9% in data set [1] (60 min) and 456 ± 76.3% in data set [1] (120 min). Besides, the “Cell-bound [%]” value in data set [1] (15 min) turned out to be 8.31 ± 1.20%; in data set [1] (30 min) it was 13.5 ± 1.38%; in data set [1] (60 min), 16.4 ± 1.31%; in data set [1] (120 min), 22.2 ± 2.68%. Besides, the “Internalized [%]” value in data set [1] (15 min) was 11.2 ± 1.93%; in data set [1] (30 min), 17.8 ± 2.02%; in data set [1] (60 min), 21.8 ± 1.10%; in data set [1] (120 min) it was 27.3 ± 3.62%. Further, the “Internalization [% Fc-131] 2 h” value in data set [1] (2 h) is reported as 456 % Fc-131. Moreover, the IC50 in data set [2] (setting [5]) was found to be 6.47 ± 1.75 nM. Also, the tissue uptake at 1 h came to 1.67 %ID/g in data set [4] (% iD/g Blood); 0.9 %ID/g in data set [4] (% iD/g Bone); 1.04 %ID/g in data set [4] (% iD/g Heart); 0.9 %ID/g in data set [4] (% iD/g Intestine); 15.7 %ID/g in data set [4] (% iD/g Kidney); 17.7 %ID/g in data set [4] (% iD/g Liver). Moreover, the tissue uptake at 1 h in data set [4] (% iD/g Lung) was 2.94 %ID/g; in data set [4] (% iD/g Muscle), 0.3 %ID/g; in data set [4] (% iD/g Pancreas) it was 0.53 %ID/g; in data set [4] (% iD/g Spleen), 3.62 %ID/g; in data set [4] (% iD/g Stomach), 1.41 %ID/g; in data set [4] (% iD/g Tumor) it was 5.27 %ID/g. Moreover, in data set [3], the logD7.4 is reported as −2.20 ± 0.06 (8).

Turning to `CC[C@H](C)[C@@H]([C@@H](CC(=O)N1CCC[C@H]1[C@H](OC)[C@@H](C)C(=O)N[C@H](C)[C@@H](O)c1ccccc1)OC)N(C)C(=O)[C@@H](NC(=O)[C@H](C(C)C)N(C)C(=O)OCc1ccc(NC(=O)[C@H](CCCNC(N)=O)NC(=O)[C@@H](NC(=O)CCCCCN2C(=O)CC(SCC[C@@H](N)C(=O)N[C@H](Cc3c[nH]cn3)C(=O)N[C@H](CCCNC(=N)N)C(=O)N[C@H](C)C(=O)Nc3ccc(C(=O)NCCC[C@@H]4C(=O)N[C@@H](CCCNC(=N)N)C(=O)N[C@@H](Cc5ccc6ccccc6c5)C(=O)NCC(=O)N[C@H](Cc5ccc(O)cc5)C(=O)N4C)cc3)C2=O)C(C)C)cc1)C(C)C` (stereo partly drawn) [CXCR4-MMAE-3], the “Internalization 2 h [% of bound peptide]” value in data set [1] (2 h, 125I-labeled) was 24.9 ± 0.85 % of bound peptide. This compound registered an IC50 in data set [2] of 43.9 ± 6.18 nM. Moreover, in data set [3], the logD7.4 was 0.80 ± 0.12 (6).

For the compound `C[C@@H](NC(=O)[C@@H](CCCNC(=N)N)NC(=O)[C@@H](CN)NC(=O)CCCCCNC(=O)[C@@H](CNC(=O)CC[C@H](C(=O)O)N1CCN(CC(=O)O)CCN(CC(=O)O)CCN(CC(=O)O)CC1)NC(=O)[C@@H](CNC(=O)c1ccc([Si](F)(C(C)(C)C)C(C)(C)C)cc1)NC(=O)CC[C@@H](NC(=O)N[C@H](CCC(=O)O)C(=O)O)C(=O)O)C(=O)Nc1ccc(C(=O)NCCC[C@@H]2C(=O)N[C@@H](CCCNC(=N)N)C(=O)N[C@@H](Cc3ccc4ccccc4c3)C(=O)NCC(=O)N[C@H](Cc3ccc(O)cc3)C(=O)N2C)cc1` [CXCR4-SiFA-5 [Ga]] (I: {dE-CO-d(γGlu)}-[dDap](Benzoyl(4-SiFtBu2))[dDap](X7)[Ahx][dDap][dR][dA][4Abz] / II: cyclo([dY][dNMeOrn]R[2Nal]G); amide I:C-II:2), in data set [1] (30 min), the “Internalized in relation … [%]” value is 233 ± 44.1%, the “Cell-bound [%]” value amounted to 0.66 ± 0.22% and the “Internalized [%]” value came out at 3.46 ± 0.57%. Also, in data set [1] (90 min), the “Internalization [% Fc-131]” value was found to be 209 % Fc-131, the “Internalized in relation … [%]” value is recorded as 209 ± 27.2%, the “Cell-bound [%]” value is 0.72 ± 0.34% and the “Internalized [%]” value is 3.70 ± 0.41%. This compound also came in with an IC50 in data set [2] (setting [6]) of 36.5 ± 4.51 nM. In addition, the logD7.4 in data set [3] was −1.85 ± 0.07 (7).

Consider `C[C@@H](NC(=O)[C@@H](CCCNC(=N)N)NC(=O)[C@@H](CN)NC(=O)CCCCCNC(=O)[C@@H](CNC(=O)CC[C@H](C(=O)O)N1CCN(CC(=O)O)CCN(CC(=O)O)CCN(CC(=O)O)CC1)NC(=O)C[N+](C)(C)Cc1ccc([Si](F)(C(C)(C)C)C(C)(C)C)cc1)C(=O)Nc1ccc(C(=O)NCCC[C@@H]2C(=O)N[C@@H](CCCNC(=N)N)C(=O)N[C@@H](Cc3ccc4ccccc4c3)C(=O)NCC(=O)N[C@H](Cc3ccc(O)cc3)C(=O)N2C)cc1` [CXCR4-SiFA-6 [Ga]], for which, in data set [1] (30 min), the “Internalized in relation … [%]” value was 829 ± 48.1%, the “Cell-bound [%]” value was 0 ± 0.29% and the “Internalized [%]” value worked out at 37.0 ± 1.06%. For the same compound, in data set [1] (90 min), the “Internalization [% Fc-131]” value came out at 980 % Fc-131, the “Internalized in relation … [%]” value is on record as 980 ± 85.6%, the “Cell-bound [%]” value is on record as 0.81 ± 0.14% and the “Internalized [%]” value is 48.1 ± 1.26%. The IC50 in data set [2] (setting [6]) came to 5.52 ± 0.71 nM. The logD7.4 in data set [3] is listed as −1.05 ± 0.06 (8).
